{"source": "patent US7127357B1", "about": "“Crystal structure of WW domains and methods of use thereof” (The Salk Institute for Biological Studies, priority 2000, dated 2006)", "key": {"[1]": {"target": "T1, Pin1 PPIase domain (Homo sapiens, UniProt Q13526)", "T1 construct": "the PPIase domain includes residues 50–163 of Pin1", "T1 sequence (Q13526 50-163)": "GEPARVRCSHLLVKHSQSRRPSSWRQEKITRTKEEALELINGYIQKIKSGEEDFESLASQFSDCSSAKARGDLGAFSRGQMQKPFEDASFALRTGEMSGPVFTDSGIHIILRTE", "experiment": "Fluorescence anisotropy binding of rhodamine-labeled peptides to isolated Pin1 PPIase domain", "protocol": "Protein purification and crystallography. His8-tagged Pin1 was expressed and purified by Ni^+2-chelation chromatography, the histidine tag was removed by thrombin digestion, and the protein purified as described in Ranganathan et al., Cell 89:875–886, 1997. All site-directed mutants were constructed using the QuikChange (Stratagene) protocol and purified like wild type Pin1. Crystals of the Pin1-YpSPTpSPS complex were grown in hanging drops at 4° C. by mixing 1.0 μl of the Pin1-peptide complex with 1.0 μl of a reservoir solution containing 100 mM MOPSO-Na^+ (pH 7.0), 28% (v/v) PEG 8000, 2 mM DTT, stabilized in 100 mM MOPSO-Na^+ (pH 7.0), 25% (v/v) PEG 8000, 20% (v/v) glycerol, 1 mM DTT, and rapidly frozen in a 100 K stream of nitrogen gas. A native data set extending to 1.84 Å resolution was collected at the Stanford Synchrotron Radiation Laboratory, beamline 9-1 (λ=0.98 Å). Data were processed with DENZO and scaled with […] (Otwinowski, Z., Minor, W. Meth. Enzymol. 276:307–326, 1997). The crystals contain one Pin1-peptide complex per asymmetric unit and belong to space group P212121 (a=35.27 Å, b=43.90 Å, c=124.66 Å, α=β=γ=90°). The final data set with an overall R merge of 6.2% (R merge=33.7% in the highest resolution shell) is 97.3% complete (98.2% in the highest resolution shell) for the resolution range of 62.02 Å to 1.84 Å. The structure of the Pin1-YpSPTpSPS repeat complex was solved by molecular replacement with AMORE (Navaza, J. Acta Crystallogr. A 50:157–163, 1994) using the Pin1 monomer as a starting model (Ranganathan et al., Cell 89:875–886, 1997). The resulting model was then positionally refined against all the data between 62.02 Å and 1.84 Å using the default bulk solvent model in CNS with maximum likelihood targets (Brunger et al., Acta Crystallogr. D 54:905–921, 1998). After refining the rebuilt model, water molecules were added automatically using CNS and edited manually in O. The final positional refinement converged to a crystallographic R factor of 24% (R free=27%) for all data (17107 reflections) between 62.02 Å and 1.84 Å. This model consists of residues 1 to 38 and 51 to 163 of human Pin1, the entire phosphopeptide, and 151 water molecules. Model quality was checked with PROCHECK (Laskowski et al., J. Appl. Crystallogr. 26:283–291, 1993). A total of 91.7% of the residues are in the most favored regions of the Ramachandran plot, 6.8% in the additional allowed region, and 0.8% in the generously allowed region. Glu-5 borders the generously allowed region.\nBinding Analysis. […] These peptides were derived from proteins previously shown to interact with Pin1. While the set of peptides examined is limited, a consensus emerges from comparison of the highest affinity interactions. Lyophilized peptides were dissolved in 25 mM HEPES-Na^+ (pH 7.5), 100 mM NaCl, 1 mM DTT and stored for short periods of time at −20° C. […] Fluorescence data were collected on a PTI Alphascan spectrofluorimeter (Photon Technology Instruments, Santa Clara, Calif.). Dissociation equilibrium constants for Pin1-peptide complexes were determined by measuring the change in fluorescence anisotropy of a set of peptide solutions at constant concentration of peptide each of which contained varied concentrations of Pin1 using the procedure described previously (Vinson et al., Biochemistry 37:10871–10880, 1998). The core binding element determined from this group of peptides is PXpSP, where X cannot be Gly. […]"}, "[2]": {"target": "T2, Pin1 WW domain (Homo sapiens, UniProt Q13526)", "T2 construct": "The WW domain of Pin1 includes residues 1 to 39", "T2 sequence (Q13526 1-39 limits assumed)": "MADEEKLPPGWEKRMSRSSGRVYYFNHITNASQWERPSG", "experiment": "Fluorescence anisotropy binding of rhodamine-labeled peptides to isolated Pin1 WW domain", "protocol": "(§1) Protein purification and crystallography. His8-tagged Pin1 was expressed and purified by Ni^+2-chelation chromatography, the histidine tag was removed by thrombin digestion, and the protein purified as described in Ranganathan et al., Cell 89:875–886, 1997. All site-directed mutants were constructed using the QuikChange (Stratagene) protocol and purified like wild type Pin1. Crystals of the Pin1-YpSPTpSPS complex were grown in hanging drops at 4° C. by mixing 1.0 μl of the Pin1-peptide complex with 1.0 μl of a reservoir solution containing 100 mM MOPSO-Na^+ (pH 7.0), 28% (v/v) PEG 8000, 2 mM DTT, stabilized in 100 mM MOPSO-Na^+ (pH 7.0), 25% (v/v) PEG 8000, 20% (v/v) glycerol, 1 mM DTT, and rapidly frozen in a 100 K stream of nitrogen gas. […]\n(§2) Binding Analysis. […] Fluorescence data were collected on a PTI Alphascan spectrofluorimeter (Photon Technology Instruments, Santa Clara, Calif.). Dissociation equilibrium constants for Pin1-peptide complexes were determined by measuring the change in fluorescence anisotropy of a set of peptide solutions at constant concentration of peptide each of which contained varied concentrations of Pin1 using the procedure described previously (Vinson et al., Biochemistry 37:10871–10880, 1998). The core binding element determined from this group of peptides is PXpSP, where X cannot be Gly. […]"}, "[3]": {"target": "T3, Pin1 (Homo sapiens, UniProt Q13526)", "T3 construct": "His8 (cleaved yes); made in house; host or cells: E. coli", "T3 sequence (Q13526 whole entry)": "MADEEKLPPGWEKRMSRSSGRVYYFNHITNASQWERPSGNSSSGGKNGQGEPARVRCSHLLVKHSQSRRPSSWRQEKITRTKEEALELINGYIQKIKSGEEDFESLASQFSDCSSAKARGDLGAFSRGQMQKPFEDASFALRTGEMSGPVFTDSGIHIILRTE", "experiment": "Fluorescence anisotropy binding of rhodamine-labeled peptides to full length Pin1", "details": "errors are deviations from theoretical binding isotherms", "protocol": "as §1, §2"}}, "note": "Non-standard residues stand in square brackets, D forms with d. Residues, ends and D or L forms follow the SMILES beside them. *: point of attachment. X1 = CN(C)c1ccc2c(c1)Oc1cc(N(C)C)ccc1C21OC(=O)c2cc(NC(=S)*)ccc21; pT = C[C@@H](OP(=O)(O)O)[C@H](N)C(=O)O; pS = N[C@@H](COP(=O)(O)O)C(=O)O"}
{"compound": "CN(C)c1ccc2c(c1)Oc1cc(N(C)C)ccc1C21OC(=O)c2cc(NC(=S)N3CCC[C@H]3C(=O)N3CCC[C@H]3C(=O)NCC(=O)N[C@@H](COP(=O)(O)O)C(=O)N3CCC[C@H]3C(=O)N3CCC[C@H]3C(=O)O)ccc21", "note": "[PPGpSPP (Myt1-S416), PPGpSPP] (X1-PPG[pS]PP-OH)", "values": [{"measurement": "Dissociation equilibrium constants for Pin1-peptide complexes, PPIase", "setting": "[1]", "result": "n.b."}]}
{"compound": "C[C@@H](O)[C@H](NC(=O)[C@H](CO)NC(=S)Nc1ccc2c(c1)C(=O)OC21c2ccc(N(C)C)cc2Oc2cc(N(C)C)ccc21)C(=O)N[C@@H](CO)C(=O)N[C@H](C(=O)N1CCC[C@H]1C(=O)N[C@@H](CCCNC(=N)N)C(=O)O)[C@@H](C)OP(=O)(O)O", "note": "[STSpTPR (Myt1-T455), STSpTPR] (X1-STS[pT]PR-OH)", "values": [{"measurement": "Dissociation equilibrium constants for Pin1-peptide complexes, PPIase", "setting": "[1]", "result": "n.b."}]}
{"compound": "YSPTSPS [YSPTSPS (CTD), unphosphorylated heptad repeat of the C-terminal domain of RNA Polymerase II, rhodamine-labeled]", "values": [{"measurement": "Dissociation equilibrium constants for Pin1-peptide complexes, WW", "setting": "[2]", "result": "n.b."}, {"measurement": "Dissociation equilibrium constants for Pin1-peptide complexes, PPIase", "setting": "[1]", "result": "n.b."}, {"measurement": "Dissociation equilibrium constants for Pin1-peptide complexes, Pin1", "setting": "[3]", "result": "n.b."}]}
{"compound": "C[C@H](NC(=O)[C@@H]1CCCN1C(=O)[C@@H]1CCCN1C(=S)Nc1ccc2c(c1)C(=O)OC21c2ccc(N(C)C)cc2Oc2cc(N(C)C)ccc21)C(=O)N[C@H](C(=O)N1CCC[C@H]1C(=O)N1CCC[C@H]1C(=O)O)[C@@H](C)OP(=O)(O)O", "note": "[PPApTPP (Myt1-T412), PPApTPP] (X1-PPA[pT]PP-OH)", "values": [{"measurement": "Dissociation equilibrium constants for Pin1-peptide complexes, PPIase", "setting": "[1]", "result": "n.b."}]}
{"compound": "CC(C)[C@H](NC(=O)[C@@H]1CCCN1C(=O)[C@@H](NC(=O)[C@H](CCCNC(=N)N)NC(=O)[C@@H]1CCCN1C(=O)[C@@H](NC(=S)Nc1ccc2c(c1)C(=O)OC21c2ccc(N(C)C)cc2Oc2cc(N(C)C)ccc21)C(C)C)[C@@H](C)OP(=O)(O)O)C(=O)O", "note": "[VPRpTPV (Cdc25c-T48), VPRpTPV] (X1-VPR[pT]PV-OH)", "values": [{"measurement": "Dissociation equilibrium constants for Pin1-peptide complexes, PPIase", "setting": "[1]", "result": "n.b."}]}
